Square brackets hold non-standard residues; d marks the D form. Peptide text beside a SMILES is read from it. * marks the point of attachment. ξ: configuration not given here. Cbz = O=C(OCc1ccccc1)*; ξV = CC(C)C(N)C(=O)O
Key:
Beta-secretase 1 [1] = molecular target: T1, Beta-secretase 1 (Homo sapiens, UniProt P56817); test: Inhibition of BACE1 at 50 uM after 2 hrs by FRET assay
Beta-secretase 1 [2] = molecular target: T1, Beta-secretase 1
Description: Inhibition of BACE1 after 2 hrs by FRET assay

Renin (Homo sapiens) = molecular target: T2, Renin (Homo sapiens) (UniProt P00797); test: Inhibition of renin at 50 uM after 30 mins by fluorometric assay
T2 sequence (whole entry): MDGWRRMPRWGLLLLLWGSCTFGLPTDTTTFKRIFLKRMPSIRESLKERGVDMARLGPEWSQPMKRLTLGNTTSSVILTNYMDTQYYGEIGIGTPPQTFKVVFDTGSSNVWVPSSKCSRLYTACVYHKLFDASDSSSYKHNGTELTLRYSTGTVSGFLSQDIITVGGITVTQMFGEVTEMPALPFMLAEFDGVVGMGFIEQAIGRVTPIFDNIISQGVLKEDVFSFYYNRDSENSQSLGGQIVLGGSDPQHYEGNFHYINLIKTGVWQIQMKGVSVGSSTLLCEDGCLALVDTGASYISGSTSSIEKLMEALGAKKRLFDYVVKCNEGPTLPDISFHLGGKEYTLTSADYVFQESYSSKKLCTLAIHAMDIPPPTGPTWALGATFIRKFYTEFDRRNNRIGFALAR

T1 sequence (P56817 whole entry): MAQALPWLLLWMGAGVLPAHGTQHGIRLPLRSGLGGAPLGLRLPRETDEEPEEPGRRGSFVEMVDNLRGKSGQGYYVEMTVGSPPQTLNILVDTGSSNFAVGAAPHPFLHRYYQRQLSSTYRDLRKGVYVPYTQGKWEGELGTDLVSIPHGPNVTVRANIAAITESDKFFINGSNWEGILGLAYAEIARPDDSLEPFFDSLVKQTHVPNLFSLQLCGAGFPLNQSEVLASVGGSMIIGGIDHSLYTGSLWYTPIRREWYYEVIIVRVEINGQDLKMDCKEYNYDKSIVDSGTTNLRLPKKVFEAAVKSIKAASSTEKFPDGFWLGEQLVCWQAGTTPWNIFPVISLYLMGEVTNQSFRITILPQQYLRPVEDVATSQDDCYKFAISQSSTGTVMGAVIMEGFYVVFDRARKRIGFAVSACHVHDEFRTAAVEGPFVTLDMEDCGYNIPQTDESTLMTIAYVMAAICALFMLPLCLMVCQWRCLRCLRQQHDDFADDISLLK

SMILES | inhibition (Beta-secretase 1 [1]) | IC50 (Beta-secretase 1 [2]) | inhibition (Renin (Homo sapiens))
COc1ccc(NS(=O)(=O)c2cccc(NC(=O)C[n+]3ccccc3)c2)cc1 | 50% |  | 
NC(=O)c1ccc[n+](CC(=O)Nc2cccc(NC(=O)c3ccccc3)c2)c1 | 54% | 44.7 µM | 
COc1ccc(NS(=O)(=O)c2cccc(NC(=O)C[n+]3cccc(C(N)=O)c3)c2)cc1 | 34% |  | 
COc1ccc(NC(=O)c2cccc(NC(=O)C[n+]3cccc(C(N)=O)c3)c2)cc1 | 100% | 1.9 µM | 0%
Cc1ccc(C(=O)Nc2cccc(NC(=O)C[n+]3ccccc3)c2)cc1 | 68% | 13 µM | 0%
Cc1ccc(S(=O)(=O)Nc2cccc(NC(=O)C[n+]3cccc(C(=O)NCCc4ccccc4)c3)c2)cc1 | 36% |  | 
Cc1ccc(C(=O)Nc2cccc(NC(=O)C[n+]3cccc(C(=O)NCCc4ccccc4)c3)c2)cc1 | 100% | 2.2 µM | 22%
Cc1ccc(S(=O)(=O)Nc2cccc(NC(=O)C[n+]3cccc(C(N)=O)c3)c2)cc1 | 4% |  | 
NC(=O)c1ccc[n+](CC(=O)Nc2cccc(C(=O)Nc3ccc(Cl)cc3)c2)c1 | 64% | 30.2 µM | 
Cc1cccc(NC(=O)c2cccc(NC(=O)C[n+]3cccc(C(=O)NCCc4ccccc4)c3)c2)c1 | 58% |  | 
Cc1cccc(NC(=O)c2cccc(NC(=O)C[n+]3cccc(C(N)=O)c3)c2)c1 | 44% |  | 
O=C(C[n+]1ccccc1)Nc1cccc(C(=O)Nc2ccc(Cl)cc2)c1 | 100% | 1 µM | 0%
Cc1ccc(NC(=O)c2cccc(NC(=O)C[n+]3cccc(C(=O)NCCc4ccccc4)c3)c2)cc1 | 72% | 4 µM | 26%
Cc1ccc(NC(=O)c2cccc(NC(=O)C[n+]3ccccc3)c2)cc1 | 42% |  | 
O=C(C[n+]1cccc(C(=O)NCCc2ccccc2)c1)Nc1cccc(NC(=O)c2ccccc2)c1 | 55% |  | 
COc1ccc(NC(=O)c2cccc(NC(=O)C[n+]3cccc(C(=O)NCCc4ccccc4)c3)c2)cc1 | 44% |  | 
COc1ccc(NC(=O)c2cccc(NC(=O)C[n+]3ccccc3)c2)cc1 | 100% | 3.7 µM | 0%
Cc1ccc(NC(=O)c2cccc(NC(=O)C[n+]3cccc(C(N)=O)c3)c2)cc1 | 69% |  | 
Cc1cccc(NC(=O)c2cccc(NC(=O)C[n+]3ccccc3)c2)c1 | 61% |  | 
O=C(C[n+]1cccc(C(=O)NCCc2ccccc2)c1)Nc1cccc(C(=O)Nc2ccc(Cl)cc2)c1 | 78% | 12 µM | 26%
O=C(C[n+]1ccccc1)Nc1cccc(NC(=O)c2ccccc2)c1 | 51% |  | 
Cc1ccc(C(=O)Nc2cccc(NC(=O)C[n+]3cccc(C(N)=O)c3)c2)cc1 | 24% |  | 
NNC(=O)CN1C(CN2CCOCC2)=Nc2ccc(Br)cc2C1c1ccccc1 (stereo unspecified) |  | 100 µM | 
C[C@H](NC(=O)c1cc(OCC(=O)NCCCCCN)cc(OS(=O)(=O)Cc2ccccc2)c1)c1ccccc1 |  | 100 µM | 
CC(C)C(NC(=O)CNC(=O)CNC(=O)OCc1ccccc1)C(=O)O (stereo not drawn) (Cbz-Gly-Gly-[ξV]-OH) |  | 500 µM | 
O=C(Nc1cc(Br)ccc1N1CCN(Cc2ccccc2)CC1)c1cccc2ccccc12 |  | 5 µM | 
Cc1ccc(Nc2nc(N/N=C/c3ccc(Cl)c(Cl)c3)nc(N3CCOCC3)n2)c(Cl)c1 |  | 100 µM | 
CCOC(=O)C(Cc1ccc(O)cc1)NS(=O)(=O)c1ccc2c(c1)C(=O)c1ccccc1C2=O (stereo unspecified) |  | 100 µM | 
CC(=O)Nc1cc(C(=O)NCc2cc(F)cc(Cl)c2)ccc1Sc1ccc(Cl)cc1 |  | 100 µM | 
COc1ccc(OC)c(/N=c2\oc3c(C)ncc(CO)c3cc2C(=O)Nc2ccc(Cl)cc2)c1 |  | 100 µM | 

Reference: ChEMBL document CHEMBL1165911, “Elaborate ligand-based pharmacophore exploration and QSAR analysis guide the synthesis of novel pyridinium-based potent beta-secretase inhibitory leads” (Bioorg Med Chem, 2010)
